Assay: gradient 5% acetonitrile 3 min, to 50% in 2 min, to 85% in 15 min, held 3 min, 100 µL/min
Settings: column: Zorbax Extend-C18 2.1 x 50 mm; eluents: water / acetonitrile, 0.1% formic acid
Summary of the method: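 Retention time was recorded from adduct peaks, which were picked computationally and each inspected manually. Pure standards ran in mixtures of ~100 molecules on HPLC coupled to a quadrupole time-of-flight mass spectrometer, in positive and negative ionization mode, through a Zorbax Extend-C18 column (2.1 × 50 mm, 1.8 μm) at 100 μL/min. Eluents were water and acetonitrile, each with 0.1% formic acid.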

Row | RP-LC retention time [s] | SMILES
1 | 950 | Cc1ccc(C)c(CNC(=O)c2nnc(-c3ccc(S(=O)(=O)N(C)C)cc3)o2)c1
2 | 710 | Cc1nnc2c(=O)n(CC(=O)NCc3ccc(F)cc3Cl)c3cccnc3n12
3 | 746 | CC(C)CC(=O)Nc1ccc2nc(N3CCN(c4ccc(Cl)cc4)CC3)cc(C(=O)O)c2c1
4 | 888 | COc1cccc2c1OC1(C)CC2C(S(=O)(=O)c2ccc(C)c(C)c2)C(=O)N1 (stereo not drawn)
5 | 685 | COC(=O)[C@@H]1Cc2c([nH]c3ccccc23)C(c2ccccc2C)N1 (stereo partly drawn)
6 | 1330 | Cc1cc(C)n(-c2ncnc3c2cnn3Cc2ccccc2Cl)n1
7 | 1060 | CCN1C(=O)c2cc(S(=O)(=O)Nc3ccc(F)c(C)c3)ccc2Oc2cccnc21
8 | 878 | Cc1ccc(NC(=O)Cn2nc3c(Oc4cccc(F)c4)nccn3c2=O)c(F)c1
9 | 712 | Cc1ccc(C)c(CNC(=O)Cn2c(=O)c3nnc(C)n3c3ncccc32)c1
10 | 962 | Cc1ccccc1-c1cn2ccn(-c3ccc4c(c3)CCC4)c(=O)c2n1
11 | 1110 | O=C(CSc1cc(N2CCN(c3ccccc3F)CC2)ncn1)NCc1ccccc1
12 | 898 | CCOc1ccccc1C(=O)N1CCN=C1SCc1ccc([N+](=O)[O-])cc1
13 | 1160 | Cc1ccc(S(=O)(=O)NC(c2nc(-c3ccc(-c4csc(C)n4)cc3)no2)C(C)C)cc1 (stereo not drawn)
14 | 926 | CCCn1cc(S(=O)(=O)Nc2cc(F)ccc2C)c2cccnc21
15 | 987 | CCc1ccccc1NC(=O)N1CCCC1c1nc(-c2ccccc2)no1 (stereo not drawn)
16 | 846 | COc1ccc(S(=O)(=O)N2CCc3c(c(CN(C(C)=O)c4ccccc4)nn3C)C2)cc1Cl
17 | 962 | CCN1CCCc2cc(C(=O)NCc3cccc(OC)c3)sc21

Row | RP-LC retention time [s] | SMILES
18 | 1220 | CCOC(=O)c1cc([N+](=O)[O-])sc1NC(=O)c1c(-c2ccccc2Cl)noc1C
19 | 798 | Cc1ccc2c(NCc3ccc(F)cc3)c(-c3nc(C(C)C)no3)cnc2n1
20 | 696 | O=C(Nc1c(-c2ccccc2)nc2ccccn12)c1ccc(Cl)c([N+](=O)[O-])c1
21 | 914 | COc1ccc(-c2nnc(COc3cccc(NC(=O)c4ccsc4)c3)o2)cc1
22 | 661 | Cc1cc(C(=O)N(C)C)c(C)n1-c1ccc(O)cc1
23 | 853 | O=C(Nc1ccc2c(c1)OCCO2)N1CCC(OCCOCc2ccccc2)CC1
24 | 909 | Cc1ccc(-c2cc3c(=O)n(Cc4nc(-c5ccccn5)no4)ccn3n2)cc1C
25 | 1050 | CNC(=O)c1c(NC(=O)c2cccc(OC)c2)sc2c1CCC2
26 | 1260 | CCOc1ccccc1-c1noc(-c2nnn(Cc3nc(-c4cccc(C)c4)oc3C)c2C)n1
27 | 912 | COc1ccc(OC)c(S(=O)(=O)N2CCc3c(c(-c4nnc(-c5ccccc5)o4)nn3C)C2)c1
28 | 735 | COc1cc(NC(=O)COc2nc(C)nc3ccccc23)cc(OC)c1
29 | 631 | CC1(C)CC(=O)C2=C(C1)Nc1ccccc1N(CC(=O)NCc1ccncc1)C2c1ccco1 (stereo not drawn)
30 | 995 | CC(C)Cn1c(=O)c2cc(C(=O)NCc3cccs3)nn2c2ccccc21
31 | 630 | CN(CCNC(=O)c1ccc2c(c1)NC(=O)C1CCCCN21)Cc1ccccc1 (stereo not drawn)
32 | 614 | Cc1cc2c(cc1NC(=O)c1ccco1)n(C)c(=O)c(=O)n2C
33 | 902 | O=C(Nc1nnc(-c2cc3ccccc3o2)o1)c1ccc(Cl)s1
34 | 636 | Cc1cc(C)c2oc(C(=O)NCC(c3ccccc3)N(C)C)cc(=O)c2c1 (stereo not drawn)

More lines, now with the values behind:

Row | SMILES | RP-LC retention time [s]
35 | CC(=O)N1CCc2sc(S(=O)(=O)N3CCN(c4ccc(C)cc4)CC3)cc2C1 | 926
36 | CCOc1ccc(C(=O)N2CCN(c3ccc(-c4nc(CC)cs4)cn3)CC2)cc1 | 987
37 | C/C=C1\C2C=C(C)C[C@]1(N)c1ccc(=O)[nH]c1C2 | 578
38 | O=C(C1=NN(Cc2ccccc2F)c2ccc(Cl)cc2S1(=O)=O)N1CCOCC1 | 875
39 | Cc1ccc(-n2nc3c(=O)n(CCCC(=O)N4CCCC4)nc(C)c3c2C)cc1 | 748
40 | CN(Cc1ccsc1)C(=O)NC1CCCC1 | 792
41 | COc1cccc(-c2noc(CN3C(=O)COc4cc(Cl)ccc43)n2)c1 | 1090
42 | CNC(=O)C1CCN(c2nc3ccc(-c4cccc(OC)c4)nc3s2)CC1 | 801
43 | Cc1cccc(CN2CCCn3nc(C(=O)NCCN4CCOCC4)cc3C2=O)c1 | 621
44 | COC(=O)c1cccc(C(=O)Nc2ccc(Cl)cc2F)n1 | 996
45 | CCCCNC(=O)Cc1nnc(-c2ccc(C)cc2)o1 | 755
46 | Fc1cc(F)cc(-c2nnc(Cc3nc(-c4ccccn4)no3)o2)c1 | 814
47 | Clc1ccc(OCc2nc(-c3cccc(-c4ccn[nH]4)c3)no2)cc1 | 1010
48 | CC(=O)N1CCC(Cc2noc(C3CC3)n2)C1 (stereo not drawn) | 625
49 | COc1c(C(=O)NC2CCCC2)sc2ccc(F)cc12 | 1080
50 | CCOC(=O)Cc1c(C)nc2cc(-c3ccc(OC)cc3)nn2c1C | 980
51 | CC(C)N1C(=O)c2cccnc2Sc2cc(NC(=O)C3CCCCC3)ccc21 | 920
52 | CCN(CC)c1ncc2c(n1)CCC(C(=O)Nc1ccc(OC)c(OC)c1)C2 (stereo not drawn) | 660
53 | Cc1cc(C)c(S(=O)(=O)N2CCn3c(nn(CC4CC4)c3=O)C2)c(C)c1 | 870
54 | CNC(=O)[C@@H]1CN(C(=O)C2CC=CCC2)C[C@H]1c1nc(C)no1 (stereo partly drawn) | 642
55 | Cc1ccc(-c2nnc(-c3ccc(Br)cc3)o2)cc1S(=O)(=O)N1CCCC1 | 1190
56 | O=C(Nc1ccc2c(c1)OCCO2)N1CCC2(CC1)Nc1ccccc1-n1cccc12 | 934
57 | O=C1NC(=O)C2(CCc3ccccc32)N1 (stereo not drawn) | 670
58 | O=C(Nc1sc2c(c1C(c1ccncc1)N1CCN(c3ccccn3)CC1)CCCC2)c1ccco1 (stereo not drawn) | 630
59 | COc1cc(-c2noc(Cn3ncn4nc(-c5ccc(F)cc5)cc4c3=O)n2)cc(OC)c1OC | 1020
60 | Cc1ccc(-c2noc(CSc3nc4cc5c(cc4c(=O)n3CC3CCCO3)OCO5)n2)cc1 (stereo not drawn) | 1160
61 | Cc1cc(N2CCN(S(=O)(=O)c3ccccc3F)CC2)nc(NC2CCCCC2)n1 | 796

Row | SMILES | RP-LC retention time [s]
62 | Cn1nc(-c2nc(Cc3ccccc3)no2)c2c1CCN(C(=O)NC1CCCCC1)C2 | 933
63 | O=C(c1ccoc1)N1CC(N(Cc2ccncc2)CC2CC2)C1 | 593
64 | Cn1nccc1-c1cccc(-c2noc(C3CC(=O)N(c4cccc(Cl)c4)C3)n2)c1 (stereo not drawn) | 978
65 | COc1cc(NC(=O)Nc2cccc(CNC(=O)O[C@H]3CCOC3)c2)ccc1-c1cnco1 | 838
66 | O=C(NC1CCCC1)c1nc(Cn2c(=O)oc3ccc(Cl)cc32)no1 | 931
67 | CC(=O)N1CCN(CCOc2ccc(C3CCN(C4=Nn5c(nnc5C(F)(F)F)CC4)CC3)cc2)CC1 | 686
68 | CC1=C(c2ccc(C)cc2)S(=O)(=O)N=C1N1CCCN(C(=O)c2cccnc2)CC1 | 687
69 | O=C([C@@H]1C[C@H](Oc2ccccc2)CN1C(=O)COc1ccccc1)N1CCCC1 | 828
70 | CCn1c(=O)c(N2CCC(C(=O)NC3CCCCCCC3)CC2)nc2cccnc21 | 1080
71 | CCN(CC)c1ccc(NC(=O)Cn2cc3c(n2)CCCCC3)c(C)c1 | 674
72 | CN1CCN(CCNC(=O)c2ccc3c(c2)nnn3Cc2ccc(F)cc2)CC1 | 591
73 | Cc1ccc(-c2noc(CN3C(=O)COc4ccc(Cl)cc43)n2)cc1 | 1150
74 | Cc1ncsc1CN1CCC2(CC1)c1[nH]c3ccccc3c1CCN2C | 538
75 | CC(C)(C)C(=O)Nc1nnc(SCc2nnc(-c3ccc4c(c3)OCO4)o2)s1 | 843
76 | O=S(=O)(Cc1ccccc1)N1CCCC(c2nn[nH]n2)C1 (stereo not drawn) | 706
77 | O=C(c1cccs1)N1CCN(c2ccc(=O)n(-c3cccc(Cl)c3)n2)CC1 | 814
78 | O=C(c1ccoc1)N1CCC2(CC1)N=C(c1ccc(Cl)cc1)NO2 | 774
79 | CCOCCCNC(=O)N1CCC2(CC1)Nc1cc(F)ccc1-n1cccc12 | 858
80 | O=C(Cn1cc(-c2ccccc2)c2ncnc(N3CCOCC3)c21)NC1CCCCC1 | 753
81 | N#Cc1ccc(-c2nc(-c3ccc4c(c3)ncn4CCN3CCOCC3)no2)cc1 | 624
82 | CN(C)c1ccc(C(=O)N2CCN(c3cc(-c4cccs4)[nH]n3)CC2)cc1 | 714
83 | CCc1nnc2ccc(-c3noc(-c4ccc(C)c(C)c4)n3)cn12 | 1140
84 | CC(C)c1noc(-c2ccnc(-n3cnc(C(=O)NC4CCCC4)c3)c2)n1 | 693
85 | COC(=O)c1ccc(NC(=O)COc2cc(C)nc(N3CCCC3)n2)cc1 | 638
86 | O=S(=O)(c1ccc(Cl)cc1)N1CCC(c2nc(-c3ccccn3)no2)CC1 | 940
87 | CCc1nc2cc(-c3noc(-c4ccnn4C)n3)ccc2o1 | 971
88 | Cc1ccc2c(c1)N(Cc1nc(-c3ccc(OC(F)(F)F)cc3)no1)C(=O)CO2 | 1210

Source: the METLIN SMRT retention time set (Domingo-Almenara et al. 2019)
